Measured values published in patent US10875876B2, “Cyclized sulfamoylarylamide derivatives and the use thereof as medicaments for the treatment of hepatitis B” (priority 2015, dated 2020).
Where two headings read alike, the source gives them in different places.

Key:
[1] = test system: HBV; assay: anti HBV activity, HepG2.117 cell line, intracellular HBV DNA by realtime PCR; format: cell-based; conditions: HepG2.117 cell line (Tet-off), 3 days of treatment, intracellular HBV DNA quantified by realtime PCR, read-out: HBV-AVE-HepG2.117 EC50
How it was run: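 Readout was intracellular HBV DNA by real-time PCR (HBV-specific primers and probe) after 3 days of compound exposure. Serial dilutions were tested in duplicate on HepG2.117 cells, a stable inducible HBV producer in which replication is switched on when doxycycline is absent.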

[2] = Cytotoxicity in HepG2 cells, Resazurin assay; conditions: human, HepG2 cells, TOX-HepG2-4 d CC50 (μM), HepG2 cells incubated for 4 days, viability by Resazurin assay
[3] = Hepatitis B virus, HepG2.117, 72 h

| SMILES | EC50 [1] | CC50 at 4 days [2] | EC50 [1, 3] |
| --- | --- | --- | --- |
| CC(C)C(O)C1COc2c(cn(C)c2C(=O)Nc2ccc(F)c(F)c2)S(=O)(=O)N1 (single isomer, unassigned) [Compound 114a, N-(3,4-difluorophenyl)-3-(1-hydroxy-2-methyl-propyl)-7-methyl-1,1-dioxo-3,4-dihydro-2H-pyrrolo[3,4-b][1,4,5]oxathiazepine-6-carboxamide] | 22 nM | > 25 µM |  |
| CCC(O)[C@@H]1COc2c(cn(C)c2C(=O)Nc2ccc(F)c(F)c2)S(=O)(=O)N1 (stereo in doubt) [Compound 142b, N-(3,4-difluorophenyl)-3-(1-hydroxypropyl)-7-methyl-1,1-dioxo-3,4-dihydro-2H-pyrrolo[3,4-b][1,4,5]oxathiazepine-6-carboxamide] |  | > 25 µM | > 125 nM |
| CC1Cc2c(cn(C)c2C(=O)Nc2ccc(F)c(F)c2)S(=O)(=O)N1 (stereo not drawn) [Compound 11, N-(3,4-difluorophenyl)-3,6-dimethyl-1,1-dioxo-3,4-dihydro-2H-pyrrolo-[3,4-e]thiazine-5-carboxamide] |  | > 25 µM | 77 nM |
| Cn1cc2c(c1C(=O)Nc1ccc(F)c(F)c1)OCC(C)(Cc1cccnc1)NS2(=O)=O (single isomer, unassigned) [Compound 199a, N-(3,4-difluorophenyl)-3,7-dimethyl-1,1-dioxo-3-(3-pyridylmethyl)-2,4-dihydropyrrolo[3,4-b][1,4,5]oxathiazepine-6-carboxamide] | 30 nM | > 25 µM |  |
| Cn1cc2c(c1C(=O)Nc1ccc(F)c(F)c1)OC[C@@H](C(O)C(F)(F)F)NS2(=O)=O (stereo partly drawn) [Compound 123, (3S)—N-(3,4-difluorophenyl)-7-methyl-1,1-dioxo-3-(2,2,2-trifluoro-1-hydroxy-ethyl)-3,4-dihydro-2H-pyrrolo[3,4-b][1,4,5]oxathiazepine-6-carboxamide] |  | > 25 µM | 19 nM |
| CC(C)C1CCc2c(cn(C)c2C(=O)Nc2ccc(F)c(F)c2)S(=O)(=O)N1 (stereo not drawn) [Compound 81, N-(3,4-difluorophenyl)-3-isopropyl-7-methyl-1,1-dioxo-2,3,4,5-tetrahydropyrrolo[3,4-f]thiazepine-6-carboxamide] |  | > 25 µM | 2 nM |
| Cc1ccc(NC(=O)c2c(F)ccc3c2OC[C@@H](C(C)C)NS3(=O)=O)cc1F [Compound 46, (3R)-7-fluoro-N-(3-fluoro-4-methyl-phenyl)-3-isopropyl-1,1-dioxo-3,4-dihydro-2H-5,1λ^6,2-benzoxathiazepine-6-carboxamide] |  | > 25 µM | 330 nM |
| Cn1cc2c(c1C(=O)Nc1ccc(F)c(C#N)c1)CCC(C(F)(F)F)NS2(=O)=O (single isomer, unassigned) [Compound 60a, N-(3-cyano-4-fluoro-phenyl)-7-methyl-1,1-dioxo-3-(trifluoromethyl)-2,3,4,5-tetrahydropyrrolo[3,4-f]thiazepine-6-carboxamide] | 55 nM | > 25 µM |  |
| Cn1cc2c(c1C(=O)Nc1ccc(F)c(C#N)c1)CCC(C(F)(F)F)NS2(=O)=O (racemic) [Compound 60, N-(3-cyano-4-fluoro-phenyl)-7-methyl-1,1-dioxo-3-(trifluoromethyl)-2,3,4,5-tetrahydropyrrolo[3,4-f]thiazepine-6-carboxamide] |  | > 25 µM | 13 nM |
| Cn1cc2c(c1C(=O)Nc1ccnc(C(F)(F)F)c1)CCC(C(F)(F)F)NS2(=O)=O (racemic) [Compound 59, 7-methyl-1,1-dioxo-3-(trifluoromethyl)-N-[2-(trifluoromethyl)-4-pyridyl]-2,3,4,5-tetrahydropyrrolo[3,4-f]thiazepine-6-carboxamide] |  | > 25 µM | 240 nM |
| COCC1(CO)CCc2c(cn(C)c2C(=O)Nc2ccc(F)c(F)c2)S(=O)(=O)N1 (stereo not drawn) [Compound 202, N-(3,4-difluorophenyl)-3-(hydroxymethyl)-3-(methoxymethyl)-7-methyl-1,1-dioxo-4,5-dihydro-2H-pyrrolo[3,4-f]thiazepine-6-carboxamide] |  | > 25 µM | 25 nM |
| Cn1cc2c(c1C(=O)Nc1ccc(F)c(F)c1)OCC(C1CCOCC1)NS2(=O)=O (single isomer, unassigned) [Compound 89a, N-(3,4-difluorophenyl)-7-methyl-1,1-dioxo-3-tetrahydropyran-4-yl-3,4-dihydro-2H-pyrrolo[3,4-b][1,4,5]oxathiazepine-6-carboxamide] | 190 nM | > 25 µM |  |
| Cn1cc2c(c1C(=O)Nc1ccc(F)c(C(F)F)c1)CC[C@H](CO)NS2(=O)=O [Compound 184, (3R)—N-[3-(difluoromethyl)-4-fluoro-phenyl]-3-(hydroxymethyl)-7-methyl-1,1-dioxo-2,3,4,5-tetrahydropyrrolo[3,4-f]thiazepine-6-carboxamide] |  | > 25 µM | 20 nM |
| Cc1cc(CC2(C)COc3c(cn(C)c3C(=O)Nc3ccc(F)c(F)c3)S(=O)(=O)N2)no1 (single isomer, unassigned) [Compound 162a, N-(3,4-difluorophenyl)-3,7-dimethyl-3-[(5-methylisoxazol-3-yl)methyl]-1,1-dioxo-2,4-dihydropyrrolo[3,4-b][1,4,5]oxathiazepine-6-carboxamide] | 33 nM | > 25 µM |  |
| CC(C)C1CCc2c(cn(C)c2C(=O)Nc2ccnc(C(F)F)c2)S(=O)(=O)N1 (stereo not drawn) [Compound 108, N-[2-(difluoromethyl)-4-pyridyl]-3-isopropyl-7-methyl-1,1-dioxo-2,3,4,5-tetrahydropyrrolo[3,4-f]thiazepine-6-carboxamide] |  | > 25 µM | 16 nM |
| COC(C)(C)C1COc2c(cn(C)c2C(=O)Nc2ccc(F)c(F)c2)S(=O)(=O)N1 (stereo not drawn) [Compound 80, N-(3,4-difluorophenyl)-3-(1-methoxy-1-methyl-ethyl)-7-methyl-1,1-dioxo-3,4-dihydro-2H-pyrrolo[3,4-b][1,4,5]oxathiazepine-6-carboxamide] |  | > 25 µM | 18 nM |
| Cn1cc2c(c1C(=O)Nc1ccc(F)c(F)c1)C=CC1(COC1)NS2(=O)=O [Compound 132, N-(3,4-difluorophenyl)-7-methyl-1,1-dioxo-spiro[2H-pyrrolo[3,4-f]-thiazepine-3,3′-oxetane]-6-carboxamide] |  | > 25 µM | 19 nM |
| Cn1cc(C2COc3c(cn(C)c3C(=O)Nc3ccc(F)c(F)c3)S(=O)(=O)N2)cn1 (stereo not drawn) [Compound 43, N-(3,4-difluorophenyl)-7-methyl-3-(1-methylpyrazol-4-yl)-1,1-dioxo-3,4-dihydro-2H-pyrrolo[3,4-b][1,4,5]oxathiazepine-6-carboxamide] |  | > 25 µM | 56 nM |
| C[C@@H](O)[C@@H]1COc2c(cn(C)c2C(=O)Nc2ccc(F)c(F)c2)S(=O)(=O)N1 [Compound 34, (3S)—N-(3,4-difluorophenyl)-3-[(1R)-1-hydroxyethyl]-7-methyl-1,1-dioxo-3,4-dihydro-2H-pyrrolo[3,4-b][1,4,5]oxathiazepine-6-carboxamide] |  | > 25 µM | 56 nM |
| Cn1cc2c(c1C(=O)Nc1ccnc(C(F)F)c1)C=CC(C(F)F)NS2(=O)=O (stereo not drawn) [compound 247] |  | > 25 µM | > 130 nM |
| CC(C)[C@H]1Oc2c(cn(C)c2C(=O)Nc2ccc(F)c(C#N)c2)S(=O)(=O)N[C@@H]1CO [compound 239] |  | > 25 µM | > 500 nM |
| Cn1cc2c(c1C(=O)Nc1ccc(F)c(F)c1)OCC(C1CCNCC1)NS2(=O)=O (stereo not drawn) [Compound 73, N-(3,4-difluorophenyl)-7-methyl-1,1-dioxo-3-(4-piperidyl)-3,4-dihydro-2H-pyrrolo[3,4-b][1,4,5]oxathiazepine-6-carboxamide] |  | > 25 µM | 480 nM |
| Cn1cc2c(c1C(=O)Nc1ccc(F)c(Cl)c1)OCC(C)(Cc1ccc(Cl)nc1)NS2(=O)=O (stereo not drawn) [Compound 198, N-(3-chloro-4-fluoro-phenyl)-3-[(6-chloro-3-pyridyl)methyl]-3,7-dimethyl-1,1-dioxo-2,4-dihydropyrrolo[3,4-b][1,4,5]oxathiazepine-6-carboxamide] |  | > 25 µM | 11 nM |
| Cn1cc2c(c1C(=O)Nc1ccc(F)c(F)c1)OCC(C)(CO)NS2(=O)=O (single isomer, unassigned) [Compound 203a, N-(3,4-difluorophenyl)-3-(hydroxymethyl)-3,7-dimethyl-1,1-dioxo-2,4-dihydropyrrolo[3,4-b][1,4,5]oxathiazepine-6-carboxamide] |  | > 25 µM | 94 nM |
| CCC(O)[C@@H]1COc2c(cn(C)c2C(=O)Nc2ccc(F)c(C(F)F)c2)S(=O)(=O)N1 (single isomer, unassigned) [Compound 144a, N-[3-(difluoromethyl)-4-fluoro-phenyl]-3-(1-hydroxypropyl)-7-methyl-1,1-dioxo-3,4-dihydro-2H-pyrrolo[3,4-b][1,4,5]oxathiazepine-6-carboxamide] | 19 nM | > 25 µM |  |
| Cn1cc2c(c1C(=O)Nc1ccc(F)c(C#N)c1)OC[C@H](Cc1cccnc1)NS2(=O)=O [Compound 71, (3S)—N-(3-cyano-4-fluoro-phenyl)-7-methyl-1,1-dioxo-3-(3-pyridylmethyl)-3,4-dihydro-2H-pyrrolo[3,4-b][1,4,5]oxathiazepine-6-carboxamide] |  | > 25 µM | 3 nM |
| C[C@H](O)[C@H]1COc2c(cn(C)c2C(=O)Nc2ccnc(C(F)F)c2)S(=O)(=O)N1 [Compound 77, (3R)—N-[2-(difluoromethyl)-4-pyridyl]-3-[(1S)-1-hydroxyethyl]-7-methyl-1,1-dioxo-3,4-dihydro-2H-pyrrolo[3,4-b][1,4,5]oxathiazepine-6-carboxamide] |  | > 25 µM | 230 nM |
